Experimental findings from US5688949A, “Pyrazolo[1,5-A]pyrimidine derivatives and anti-inflammatory agent containing the same” (Otsuka Pharmaceutical Factory, Inc., priority 1991, dated 1997) are described below.

In assay [1] the target is T1, cyclooxygenase (Ovis aries, UniProt P05979).
T1 construct: sheep seminal vesicle microsome, which is a crude enzyme solution; from tissue; host or cells: sheep seminal vesicle microsomes (crude enzyme solution)
T1 sequence (P05979 25-600): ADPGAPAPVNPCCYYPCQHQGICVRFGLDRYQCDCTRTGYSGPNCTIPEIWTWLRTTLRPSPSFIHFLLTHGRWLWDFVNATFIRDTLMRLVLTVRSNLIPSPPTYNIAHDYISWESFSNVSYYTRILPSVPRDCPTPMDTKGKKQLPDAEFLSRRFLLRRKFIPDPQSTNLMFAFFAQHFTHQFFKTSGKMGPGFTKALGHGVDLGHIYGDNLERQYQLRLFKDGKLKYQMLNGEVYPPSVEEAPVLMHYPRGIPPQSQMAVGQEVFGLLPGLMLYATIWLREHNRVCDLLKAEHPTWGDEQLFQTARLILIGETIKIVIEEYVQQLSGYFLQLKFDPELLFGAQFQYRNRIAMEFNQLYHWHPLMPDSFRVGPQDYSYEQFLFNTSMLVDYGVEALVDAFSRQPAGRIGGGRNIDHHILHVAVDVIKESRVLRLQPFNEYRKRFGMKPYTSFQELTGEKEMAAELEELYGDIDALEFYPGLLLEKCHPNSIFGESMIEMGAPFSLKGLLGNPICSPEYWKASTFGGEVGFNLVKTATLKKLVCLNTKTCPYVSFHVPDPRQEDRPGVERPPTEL
The assay can be described thus: Cyclooxygenase inhibitory activity test 2 (fixed concentration, sheep seminal vesicle microsome). In kind it is biochemical. The settings on record: same fixed concentration, 3×10^-7 M; PGE2 producing rate compared with control group. How it is done: The preparation of sheep seminal vesicle microsome, which is a crude enzyme solution, and the analysis of the cyclooxygenase activity were carried out according to the method of Miyamoto et al. as follows [cf.
(§1) That is, a test compound was added to a microsome solution, and the mixture was incubated at 24° C. for two minutes, and then, thereto was added a substrate, ^14 C-arachidonic acid. The mixture was further incubated for two minutes, and the reaction was quenched with a mixture of ether/methanol/0.2M citric acid (30:4:1), and extracted to collect a product produced by cyclooxygenase. The extract was spotted on a thin layer plate and the plate was developed. The fractions containing the arachidonic acid, prostaglandin E2 (PGE2) and the other parts were collected by scratching, respectively. Each part was measured with a scintillation counter, by which the cyclooxygenase activity therein was estimated.

Assay [2] concerns the target T1, cyclooxygenase. The assay can be described thus: Cyclooxygenase inhibitory activity test 1 (sheep seminal vesicle microsome, 14C-arachidonic acid). The assay is classed as biochemical. Here is the method: Cyclooxygenase inhibitory activity test 1:
The preparation of sheep seminal vesicle microsome, which is a crude enzyme solution, and the analysis of the cyclooxygenase activity were carried out according to the method of Miyamoto et al. as follows [cf. Proc. Natl. Acad. Sci., U.S.A., 71, 3645 (1974) and J. Biol. Chem., 251, 2629 (1976)].
as §1
The compounds prepared in Examples 2, 38, 44 and 46 were tested in the above experiment, and there were obtained the concentrations of the test compounds required to reduce the cyclooxygenase activity to 50% (cyclooxygenase inhibitory rate; IC50 value).

pIC50: −log10 of the molar value.

In general, inhibition refers to the drop in the measured response relative to a control, in per cent. A higher inhibition goes with a strong effect. For `Cc1cc(Nc2cc(C(C)(C)C)c(O)c(C(C)(C)C)c2)n2nccc2n1` [Example 2, 5-methyl-7-(3,5-di-t-butyl-4-hydroxyphenyl)aminopyrazolo[1,5-a]pyrimidine], at cyclooxygenase [1], the inhibition at 0.3 µM was 65%. The “IC50 value relative to that of indomethacin ("times as high as that of indomethacin")” value at cyclooxygenase [2] (reference compound indomethacin) was 27.8 times. At cyclooxygenase [2] (sheep seminal vesicle microsome, 24° C., two minutes preincubation, two minutes with 14C-arachidonic acid, read-out: IC50 value (concentration required to reduce the cyclooxygenase activity to 50%)), the pIC50 is 6.52.
`CCCCc1cc(Nc2cc(C(C)(C)C)c(O)c(C(C)(C)C)c2)n2nccc2n1` [Example 38] yielded an inhibition at 0.3 µM on cyclooxygenase [1] of 48.2%.
The same measure, in the same setting: in the case of `CCc1cc(Nc2cc(C(C)(C)C)c(O)c(C(C)(C)C)c2)n2nccc2n1` [Example 44] it was 55.9%; in that of `CC(C)(C)c1cc(Nc2cc(C3CC3)nc3ccnn23)cc(C(C)(C)C)c1O` [Example 46], 50.5%.
